We go through two compounds from patent US20110033387A1, “METHOD OF DETERMINATION OF PDH ACTIVITY AND IMAGING MEDIA FOR USE IN SAID METHOD” (GE HEALTHCARE LIMITED, priority 2007, published 2011).

The subject of series [1] is PDH. In words: PDH activity by 13C-MR detection (13C-bicarbonate to 13C-pyruvate ratio) in STZ Type 1 diabetes model. It counts as in vivo, male Wistar rats. The note with it: single i.p. injection 50 mg/kg, five days after induction, rat heart, each rat its own control. The procedure: Initial PDH activity (baseline) was determined in a first group of 6 rats according to Example 3. […] Five days after STZ-diabetes induction, PDH activity was determined again, each rat served as its own experimental control.
(§1) All rats were anaesthetised using isofluorane (2% in oxygen) and kept on a heated mat. Care was taken to maintain body temperature at 37° C. A catheter was introduced into the tail vein, and rats were then placed in a home-built animal handling system. ECG, respiration rate, and body temperature were monitored, and air heating was provided. Anaesthesia was continued by means of isofluorane (1.7%) delivered to a nose cone.
1 cm^3 of the imaging medium as prepared in Example 1 was injected over 10 s via the tail vein catheter in the anaesthetised rat. […]
(§2) The series of cardiac ^13C MR spectra were analysed using the AMARES algorithm as implemented in the jMRUI software package (Naressi et al., Computers in Biology and Medicine, 31(4), 2001, 269-286 and Naressi et al., Magnetic Resonance Materials in Physics, Biology and Medicine, 12(2-3), 2001, 141-152). […]
Maximum pyruvate peak area was calculated for each series of spectra, and was used to calculate maximum bicarbonate/pyruvate ratio. […] Parameters describing the kinetic progression of bicarbonate, namely time to appearance, time to maximum, and decay time to half maximum were also calculated.

Series [2] deals with PDH. In words: PDH flux by cardiac 13C-MR with imaging medium with or without malate, fed and fasted rats. Format: in vivo, male Wistar rats. The following applies: 40 μmol hyperpolarised 13C-pyruvate alone, fasted vs fed rats. The procedure:
as §1
A home-built ^1H/^13C butterfly coil was fit over the rat chest, localising signal from the heart. Rats were positioned in a 7 T horizontal bore MR scanner interfaced to a Varian Inova console. Correct positioning was confirmed by the acquisition of an axial proton FLASH image (TE/TR=1.17/2.33 ms, Matrix size=64×64, FOV=60×60 mm, Slice thickness=2.5 mm, Excitation flip angle=15°). […]
as §2
Maximum pyruvate peak area was calculated for each series of spectra, and was used to calculate maximum bicarbonate/pyruvate ratio. […] Parameters describing the kinetic progression of bicarbonate, namely time to appearance, time to maximum, and decay time to half maximum were also calculated. […]

The nature of series [3]: T1 relaxation of 13C1-pyruvate in human full blood. It counts as physicochemical. The following applies: human full blood at 37° C.

For `CN(N=O)C(=O)N[C@H]1C(O)O[C@H](CO)[C@@H](O)[C@@H]1O` (mixture of isomers) [STZ, Streptozotocin], the “ratio of the 13C-bicarbonate to 13C-pyruvate peak amplitude / PDH activity, before vs after STZ injection” value with PDH [1] was “decrease in PDH activity”.

Take `CC(=O)C(=O)O` [^13C1-pyruvate, sodium ^13C1-pyruvate]: in the series on PDH [2], the “PDH flux lower in fasted rats compared with fed rats” value came out at 55%. The T1 relaxation result in series [3] is “about 42 s”.
